The test system of test [1] is LTB4-induced CD11b expression in neutrophils. In words: CD11b assay, human whole blood. The test is classed as cell-based. As to conditions: Neutrophil, 10 nM LTB4. The method, then: EDTA anti-coagulated blood is collected from human donors or mice as before. For in vitro experiments, 8 or 10 point dose response curves of test compounds are assayed at final concentrations of 78 nM-10 μM or 20 nM-10 μM respectively. ½ serial dilutions of compound at 1000× of final assayed concentration are prepared in DMSO. Compound is then diluted to 10× in DPBS (DMSO concentration is now 1%). 10 μL of compound dilutions (at 10× in DPBS) or 1% DMSO in DPBS are added to wells of a 96 deep well plate. 90 μL whole blood is added and incubated 20 min at room temperature. 11 μL of 10×LTB4 (final concentration 25 nM for mouse or 10 nM human) is added and incubated at 37° C. for 30 min. The reaction is stopped by incubating the plate on ice for 5 min. The cells are stained with 10 μL anti-mouse or anti-human CD11b-PE (BD Biosciences diluted 1:20 for mouse and undiluted for human) and incubated on ice for 30 min in the dark (for mouse experiments, 10 μL anti-mouse LY6G-FITC antibody (BD Pharmingen) diluted 1:25 is added for the final 10 min) Red blood cells (RBCs) are lysed by adding 1.5 mL of 1×BD FACSlyse (BD Biosciences) and incubating for 10 min at room temperature in the dark. […] Data are analyzed with WinList software (Verity Software House) to determine mean and median fluorescent intensity values for CD11b-PE from neutrophil population.

The test system of test [2] is CaCl2-induced abdominal aortic aneurysm. Briefly: CaCl2-induced AAA animal efficacy model, rats. The format is in vivo, Sprague-Dawley rats. As to conditions: 28 days, aortic lumenal perimeter. The text has this:
A targeted application of a calcium chloride solution to the mouse aorta induces vessel dilatation Chiou et al. J. Surg. Res. (2001), 99: 371-376; Lomgo et al. J. Clin. Invest. (2002), 110: 625-632. Two weeks after treatment, the vessel dilatation compared to the original vessel diameter becomes statistically significant, with up to 75% increase of aortic lumenal perimeter after 4 weeks. Calcium precipitates have been localized primarily within the elastic network of the media. Disruption of this structure by the calcium-elastic tissue complex weakens the vessel wall, contributing to aneurysm formation. This injury also serves as a proinflammatory stimulus, recruiting neutrophils, lymphocytes, monocytes, and mast cells.
Rats: Sprague-Dawley rats, 7-8 weeks of age, are acquired from Harlan, Indianapolis, Ind., USA
Aneurysm Induction Model: All procedures are performed in accordance with Eli Lilly and Company Institutional Animal Care and Use guidelines. Upon their arrival, animals have a one week acclimation period during which they have ad libitum access to standard rodent chow (Purina #2014) and house water. Following the acclimation period, animals are anesthetized with isoflurane, and a laparotomy is performed for the CaCl2-stimulated induction of the abdominal aortic aneurysm (AAA). […] Once isolated, the region of interest (ROI) of the abdominal aorta is wrapped with sterile, cotton gauze presoaked in a 0.25 M CaCl2 solution. In sham control animals, 0.9% saline is substituted for CaCl2. After 7 min, the gauze is removed and a second CaCl2 soaked gauze reapplied. Following the second 7 min period, the gauze is removed, the aorta rinsed with 0.9% saline and the abdomen closed Animals are returned to general housing at the end of their surgical day. Compound Administration: Mice receive test compound (Example 2) by oral gavage at a dose volume of 10 mL/kg of body weight, and rats receive test compound (Example 2) by oral gavage at a dose volume of 2.5 mL/kg of body weight. Compound administration is BID (a.m. and p.m.) with the first dose given one day prior to surgery (p.m.) and the second dose given the morning of surgery. […] The day after surgery, dosing continues BID for 28 days. […] Interior cross sectional lumenal perimeter measurements (mm) are collected at that point to assess efficacy and statistically analyzed with JMP® 7 software (Cary, N.C.). Statistical Analysis: Measurements of lumenal perimeter are expressed as mean values±SE. […]
In a similar study design, the ability of the compound of Example 2 to modulate aortic aneurysm dilation following CaCl2-induced injury is evaluated in Sprague-Dawley rats.

Each structure is given as a SMILES string.

The IC50 is the concentration at which inhibition is half-maximal.

In test [1], `CCCc1c(NC(=O)CC(C)(C)C(=O)[O-])cccc1OCCCOc1cc(O)c(-c2ccc(F)cc2)cc1CC.[Na+]` [Example 2, Sodium 4-[[3-[3-[2-ethyl-4-(4-fluorophenyl)-5-hydroxy-phenoxy]propoxy]-2-propyl-phenyl]amino]-2,2-dimethyl-4-oxo-butanoate] showed an IC50 of 193 nM. Further, the “% Reduced (±S.E.) of AAA” value in test [2] (3 mg/kg b.i.d. oral gavage) was 46% ± 7; in test [2] (10 mg/kg b.i.d. oral gavage), 69% ± 4; in test [2] (30 mg/kg b.i.d. oral gavage) it was 85% ± 5; in test [2] (60 mg/kg b.i.d. oral gavage), 69% ± 10.

Values taken from patent US9187411B2, “Leukotriene B4 antagonist compound” (Eli Lilly and Company, priority 2012, dated 2015).
